Source: patent publication US5093256A, “Essentially purified, thermostable and alkalophilic lipase from Bacillus Sp. A30-1 ATCC 53841” (priority 1989, dated 1992)
Where two headings read alike, the source gives them in different places.

Test system: Bacillus sp. A30-1 ATCC No. 53841 thermostable lipase
Conditions: 30° C., peroxide removed by dialysis before assay; for residual activity (of the original activity) after incubation with hydrogen peroxide: 0.5% hydrogen peroxide
Description: Lipase production was routinely assayed by monitoring the fatty acid released from corn oil. The assay is based on the fact that the dye Rhodamine 6G in benzene solution reacts with an acid to form a chromophore which can be spectrophotometrically quantified. One tenth mL of cell free culture broth (obtained by removing cells by centrifugation) was mixed with 0.02 mL of a 25% corn oil solution in 100 mM Tris-Hcl buffer (pH 9.5) and then incubated at 60° C. for 1 hr. After appropriate time the reaction was stopped with the addition of 0.1N HCl in 95% ethanol. The resulting fatty acids were extracted with petroleum ether, and evaporated to dryness under vacuum. Subsequently, diluted Rhodamine 6G stock solution was added. After fifteen minutes at room temperature the absorbance of the resulting reaction mixture was read at 515 nm. One unit of lipase is defined as the amount that will liberate 1 μmole of fatty acid per hour under the assay condition.
To an aliquot of enzyme solution containing a known amount of activity, different amounts of hydrogen peroxide were added to final concentration of 0.5, 1, 2, and 4% respectively. These were kept at 30° C. for different periods of time. Then hydrogen peroxide contained in enzyme solution was eliminated by dialysis against water. Residual activities were measured by the analytical methods described above.

OO [hydrogen peroxide]
residual activity (of the original activity) after incubation with hydrogen peroxide (1 hr): 100% | residual activity (of the original activity) after incubation with hydrogen peroxide (19 hrs): 60% | residual activity after incubation with hydrogen peroxide (4% hydrogen peroxide, 5 hrs): 75%
